Some results are limits rather than exact numbers.

TRPML1, sequence (Q9GZU1 17-572 limits assumed): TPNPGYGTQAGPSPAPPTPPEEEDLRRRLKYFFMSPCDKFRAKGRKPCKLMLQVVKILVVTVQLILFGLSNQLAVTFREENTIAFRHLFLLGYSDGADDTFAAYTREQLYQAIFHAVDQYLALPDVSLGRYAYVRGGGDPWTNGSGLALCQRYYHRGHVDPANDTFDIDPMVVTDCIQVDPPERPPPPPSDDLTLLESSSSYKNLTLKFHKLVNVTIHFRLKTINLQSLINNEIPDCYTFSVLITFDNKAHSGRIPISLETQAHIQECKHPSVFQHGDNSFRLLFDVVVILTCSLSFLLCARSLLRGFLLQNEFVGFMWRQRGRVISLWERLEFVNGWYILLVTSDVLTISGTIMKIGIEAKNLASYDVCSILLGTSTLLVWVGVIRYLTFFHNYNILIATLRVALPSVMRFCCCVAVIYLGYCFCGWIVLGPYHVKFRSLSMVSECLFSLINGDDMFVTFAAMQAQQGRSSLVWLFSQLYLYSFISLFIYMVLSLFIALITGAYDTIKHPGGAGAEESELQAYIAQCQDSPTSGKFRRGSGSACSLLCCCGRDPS

This assay addresses TRPML1 (Homo sapiens, UniProt Q9GZU1). As to the kind of experiment: Calcium flux in HEK293 overexpressing TRPML1 plasma membrane variant (FLIPR, Calcium 6 dye). In kind it is cell-based. The note with it: HEK293/TRPML1-PM clone A5 cells; 4-parameter logistic fit; read-out: TRPML1 calcium flux (FLIPR) dose response: EC50. The text has this:
Example B1. Calcium Flux in HEK293 Overexpressing TRPML1 Plasma Membrane Variant—Calcium 6 Dye
Cells: HEK293/TRPML1-PM clone A5, clonal cell line containing mutant TRPML1 (both N- and C-terminal dileucine targeting motifs deleted) that localizes to the plasma membrane
Plates: Perkin Elmer Viewplate cat. #6007460, black optically clear, tissue culture treated 384-well plate
Calcium dye: Molecular Devices FLIPR Calcium 6 Assay Kit, cat. #R8190 or Fluo-4 Direct from Thermo Fisher, cat. #F10471
Tips: Molecular Devices 384-well FLIPR Tetra black tips, cat. #9000-0764 Example B1.2 Method
HEK293/TRPML1-PM clone A5 cells were trypsinized from flasks, counted, then diluted in media to 15,000 cells per 25 μL, and seeded into a black, 384-well viewplate, and cultured overnight.
One vial of calcium 6 dye was diluted with 10 mL of assay buffer (HBSS+20 mM HEPES pH 7.4) and 25 μL of the dilution was added per well to the cells.
After incubating for 2 hours at 37° C., the plate was moved to the FLIPR in the read position.
The compounds were diluted in EMEM with 0.125% FBS to 5× concentration and loaded in a 384-well plate according to the desired plate map for the assay, including DMSO alone and carbachol controls, then the plate was moved to the FLIPR in the source 2 position.
A box of tips was placed in the source 1 position within the FLIPR to complete the assay set up.
Once the run was started, an initial baseline fluorescent measurement was performed for 10 seconds (470-495 nm excitation and 515-575 nm emission) prior to adding the compounds.
12.5 μL of 5× test compound, DMSO alone, or carbachol were added via the FLIPR and real-time fluorescence measurements were performed for an additional 170 seconds with 1 read per second.
The data was normalized to baseline by calculating maximum fluorescence minus minimum fluorescence and plotted as response (fold) over the baseline versus log ([…] concentration). The EC50 was determined using a 4-parameter logistic curve fit in Graphpad Prism 9.
On the technique in general: Calcium flux is commonly read through the fluorescence of an indicator in the cells.
In general, EC50 refers to the concentration giving half of the maximal effect. As for `CN(CC1COC1)c1ccccc1NS(=O)(=O)c1ccc(S(=O)(=O)N(C)C)cc1` [Compound 47, N1,N1-dimethyl-N4-(2-(methyl(oxetan-3-ylmethyl)amino)phenyl)benzene-1,4-disulfonamide], the EC50 was over 10 µM. The same measure for `Cc1cc(CN(C)c2ccccc2NS(=O)(=O)c2ccc(S(=O)(=O)N(C)C)cc2)cc(C)n1` [Compound 48, N1-(2-(((2,6-dimethylpyridin-4-yl)methyl)(methyl)amino)phenyl)-N4,N4-dimethylbenzene-1,4-disulfonamide]: 7.45 µM; for `Cc1nn(C)cc1CN(C)c1ccccc1NS(=O)(=O)c1ccc(S(=O)(=O)N(C)C)cc1` [Compound 50, N1-(2-(((1,3-dimethyl-1H-pyrazol-4-yl)methyl)(methyl)amino)phenyl)-N4,N4-dimethylbenzene-1,4-disulfonamide]: 6.55 µM. The same measure for `Cc1ncsc1CN(C)c1ccccc1NS(=O)(=O)c1ccc(S(=O)(=O)N(C)C)cc1` [Compound 51, N1,N1-dimethyl-N4-(2-(methyl((4-methylthiazol-5-yl)methyl)amino)phenyl)benzene-1,4-disulfonamide]: 3.05 µM. Consider `CN(c1cccc(Cl)c1NS(=O)(=O)c1ccc(S(=O)(=O)N(C)C)cc1)C1CCCCC1` [Compound 52, N1-(2-chloro-6-(cyclohexyl(methyl)amino)phenyl)-N4,N4-dimethylbenzene-1,4-disulfonamide], for which the EC50 turned out to be 5.78 µM.

Turning to `CN(c1ccc(F)cc1NS(=O)(=O)c1ccc(S(=O)(=O)N(C)C)cc1)C1CCCCC1` [Compound 53, N1-(2-(cyclohexyl(methyl)amino)-5-fluorophenyl)-N4,N4-dimethylbenzene-1,4-disulfonamide], the EC50 came to 1.06 µM. In the case of `CN(C)CCN(C)c1ccccc1NS(=O)(=O)c1ccc(S(=O)(=O)N(C)C)cc1` [Compound 54, N1-(2-((2-(dimethylamino)ethyl)(methyl)amino)phenyl)-N4,N4-dimethylbenzene-1,4-disulfonamide], the EC50 was over 10 µM. The same measure for `CN(Cc1cncn1C)c1ccccc1NS(=O)(=O)c1ccc(S(=O)(=O)N(C)C)cc1` [Compound 56, N1,N1-dimethyl-N4-(2-(methyl((1-methyl-1H-imidazol-5-yl)methyl)amino)phenyl)benzene-1,4-disulfonamide]: over 10 µM; for `CN(Cc1cccnc1)c1ccccc1NS(=O)(=O)c1ccc(S(=O)(=O)N(C)C)cc1` [Compound 57, N1,N1-dimethyl-N4-(2-(methyl(pyridin-3-ylmethyl)amino)phenyl)benzene-1,4-disulfonamide]: 4.61 µM. The same measure for `Cc1cnccc1CN(C)c1ccccc1NS(=O)(=O)c1ccc(S(=O)(=O)N(C)C)cc1` [Compound 58, N1,N1-dimethyl-N4-(2-(methyl((3-methylpyridin-4-yl)methyl)amino)phenyl)benzene-1,4-disulfonamide]: 6.88 µM; for `CN(Cc1cn(C)cn1)c1ccccc1NS(=O)(=O)c1ccc(S(=O)(=O)N(C)C)cc1` [Compound 59, N1,N1-dimethyl-N4-(2-(methyl((1-methyl-1H-imidazol-4-yl)methyl)amino)phenyl)benzene-1,4-disulfonamide]: 2.24 µM. The same measure for `CCN(c1ccccc1NS(=O)(=O)c1ccc(S(=O)(=O)N(C)C)cc1)C1CCCCC1` [Compound 60, N1-(2-(cyclohexyl(ethyl)amino)phenyl)-N4,N4-dimethylbenzene-1,4-disulfonamide]: 0.0867 µM; for `CN(C)S(=O)(=O)c1ccc(S(=O)(=O)Nc2ccccc2N(C=O)Cc2cncs2)cc1` [Compound 61, N-(2-((4-(N,N-dimethylsulfamoyl)phenyl)sulfonamido)phenyl)-N-(thiazol-5-ylmethyl)formamide]: over 30 µM. In the case of `CN(CCC1COC1)c1ccccc1NS(=O)(=O)c1ccc(S(=O)(=O)N(C)C)cc1` [Compound 62, N1,N1-dimethyl-N4-(2-(methyl(2-(oxetan-3-yl)ethyl)amino)phenyl)benzene-1,4-disulfonamide], the EC50 is over 30 µM. Turning to `CN(C)S(=O)(=O)c1ccc(S(=O)(=O)Nc2ccccc2N(C(=O)C(F)(F)F)C2CCCCC2)cc1` [Compound 63, N-cyclohexyl-N-(2-((4-(N,N-dimethylsulfamoyl)phenyl)sulfonamido)phenyl)-2,2,2-trifluoroacetadmie], the EC50 worked out at 11 µM. The same measure for `Cc1ncc(F)cc1CN(C)c1ccccc1NS(=O)(=O)c1ccc(S(=O)(=O)N(C)C)cc1` [Compound 75, N1-(2-(((5-fluoro-2-methylpyridin-3-yl)methyl)(methyl)amino)phenyl)-N4,N4-dimethylbenzene-1,4-disulfonamide]: 2.14 µM; for `CN(Cc1cnc2n1CCC2)c1ccccc1NS(=O)(=O)c1ccc(S(=O)(=O)N(C)C)cc1` [Compound 79, N1-(2-(((6,7-dihydro-5H-pyrrolo[1,2-a]imidazol-3-yl)methyl)(methyl)amino)phenyl)-N4,N4-dimethylbenzene-1,4-disulfonamide]: 28.5 µM. The same measure for `Cc1cnn(C)c1CN(C)c1ccccc1NS(=O)(=O)c1ccc(S(=O)(=O)N(C)C)cc1` [Compound 80, N1-(2-(((1,4-dimethyl-1H-pyrazol-5-yl)methyl)(methyl)amino)phenyl)-N4,N4-dimethylbenzene-1,4-disulfonamide]: 5.94 µM; for `CCN(CC)c1ccccc1NS(=O)(=O)c1ccc(S(=O)(=O)N(C)C)cc1` [Compound 82, N1-(2-(diethylamino)phenyl)-N4,N4-dimethylbenzene-1,4-disulfonamide]: 3.76 µM. `CN(Cc1cn2c(n1)CCC2)c1ccccc1NS(=O)(=O)c1ccc(S(=O)(=O)N(C)C)cc1` [Compound 83, N1-(2-(((6,7-dihydro-5H-pyrrolo[1,2-a]imidazol-2-yl)methyl)(methyl)amino)phenyl)-N4,N4-dimethylbenzene-1,4-disulfonamide]: the EC50 was over 30 µM. `CN(c1cccc(C#N)c1NS(=O)(=O)c1ccc(S(=O)(=O)N(C)C)cc1)C1CCCCC1` [Compound 86, N1-(2-cyano-6-(cyclohexyl(methyl)amino)phenyl)-N4,N4-dimethylbenzene-1,4-disulfonamide]: the EC50 was over 30 µM. With `CN(c1cc(C#N)ccc1NS(=O)(=O)c1ccc(S(=O)(=O)N(C)C)cc1)C1CCCCC1` [Compound 88, N1-(4-cyano-2-(cyclohexyl(methyl)amino)phenyl)-N4,N4-dimethylbenzene-1,4-disulfonamide] the figure was 2.14 µM; with `CN(CCc1nccs1)c1ccccc1NS(=O)(=O)c1ccc(S(=O)(=O)N(C)C)cc1` [Compound 90, N1,N1-dimethyl-N4-(2-(methyl(2-(thiazol-2-yl)ethyl)amino)phenyl)benzene-1,4-disulfonamide], 1.4 µM. With `CN(c1cccc(C(F)(F)F)c1NS(=O)(=O)c1ccc(S(=O)(=O)N(C)C)cc1)C1CCCCC1` [Compound 92, N1-(2-(cyclohexyl(methyl)amino)-6-(trifluoromethyl)phenyl)-N4,N4-dimethylbenzene-1,4-disulfonamide] the figure was 7.44 µM.

For `CN(Cc1ccn(C2CC2)n1)c1ccccc1NS(=O)(=O)c1ccc(S(=O)(=O)N(C)C)cc1` [Compound 94, N1-(2-(((1-cyclopropyl-1H-pyrazol-3-yl)methyl)(methyl)amino)phenyl)-N4,N4-dimethylbenzene-1,4-disulfonamide], the EC50 was 2.53 µM. With `CN(CC1CCOC(C)(C)C1)c1ccccc1NS(=O)(=O)c1ccc(S(=O)(=O)N(C)C)cc1` (stereo not drawn) [Compound 100, N1-(2-(((2,2-dimethyltetrahydro-2H-pyran-4-yl)methyl)(methyl)amino)phenyl)-N4,N4-dimethylbenzene-1,4-disulfonamide] the figure was 1.16 µM.

`CN(Cc1cnsc1)c1ccccc1NS(=O)(=O)c1ccc(S(=O)(=O)N(C)C)cc1` [Compound 101, N1-(2-((isothiazol-4-ylmethyl)(methyl)amino)phenyl)-N4,N4-dimethylbenzene-1,4-disulfonamide]: the EC50 was 3.02 µM. With `CN(c1ccccc1NS(=O)(=O)c1ccc(S(=O)(=O)N(C)C)cc1)C1CCCCC1(F)F` (stereo not drawn) [Compound 103, N1-(2-((2,2-difluorocyclohexyl) (methyl)amino)phenyl)-N4,N4-dimethylbenzene-1,4-disulfonamide] the figure was 1.97 µM. For `CN(CCCn1cccn1)c1ccccc1NS(=O)(=O)c1ccc(S(=O)(=O)N(C)C)cc1` [Compound 105, N1-(2-((3-(1H-pyrazol-1-yl)propyl)(methyl)amino)phenyl)-N4,N4-dimethylbenzene-1,4-disulfonamide], the concentration for a half-maximal effect (EC50) turned out to be 4.36 µM. For `CN(CC1CCCO1)c1ccccc1NS(=O)(=O)c1ccc(S(=O)(=O)N(C)C)cc1` (stereo not drawn) [Compound 107, N1,N1-dimethyl-N4-(2-(methyl((tetrahydrofuran-2-yl)methyl)amino)phenyl)benzene-1,4-disulfonamide], the EC50 is 1.39 µM.

The values above are taken from patent US20250340510A1, “Substituted Phenylbenzenesulfonamide Derivatives and Uses Thereof” (Nine Square Therapeutics Corporation, priority 2022, published 2025).
